Laboratory results from US7696208B2, “Therapeutic agents useful for treating pain” (Purdue Pharma L.P., priority 2003, dated 2010).

Columns and labels:
human VR1 [1] = target: T1, human VR1 (Homo sapiens, UniProt Q8NER1); assay: Capsaicin-based assay (FLIPR calcium influx, inducible HEK293-EcR cells expressing human VR1); assay type: cell-based; settings: activation by 50 μL of capsaicin (400 nM), HEK293-EcR cells induced with 5 μM PonA, Fluo-4, FLIPR, n=3
T1 construct: expressed in transfected cells; host or cells: HEK293-EcR cells, expression induced with ponasterone A
T1 sequence (Q8NER1 whole entry): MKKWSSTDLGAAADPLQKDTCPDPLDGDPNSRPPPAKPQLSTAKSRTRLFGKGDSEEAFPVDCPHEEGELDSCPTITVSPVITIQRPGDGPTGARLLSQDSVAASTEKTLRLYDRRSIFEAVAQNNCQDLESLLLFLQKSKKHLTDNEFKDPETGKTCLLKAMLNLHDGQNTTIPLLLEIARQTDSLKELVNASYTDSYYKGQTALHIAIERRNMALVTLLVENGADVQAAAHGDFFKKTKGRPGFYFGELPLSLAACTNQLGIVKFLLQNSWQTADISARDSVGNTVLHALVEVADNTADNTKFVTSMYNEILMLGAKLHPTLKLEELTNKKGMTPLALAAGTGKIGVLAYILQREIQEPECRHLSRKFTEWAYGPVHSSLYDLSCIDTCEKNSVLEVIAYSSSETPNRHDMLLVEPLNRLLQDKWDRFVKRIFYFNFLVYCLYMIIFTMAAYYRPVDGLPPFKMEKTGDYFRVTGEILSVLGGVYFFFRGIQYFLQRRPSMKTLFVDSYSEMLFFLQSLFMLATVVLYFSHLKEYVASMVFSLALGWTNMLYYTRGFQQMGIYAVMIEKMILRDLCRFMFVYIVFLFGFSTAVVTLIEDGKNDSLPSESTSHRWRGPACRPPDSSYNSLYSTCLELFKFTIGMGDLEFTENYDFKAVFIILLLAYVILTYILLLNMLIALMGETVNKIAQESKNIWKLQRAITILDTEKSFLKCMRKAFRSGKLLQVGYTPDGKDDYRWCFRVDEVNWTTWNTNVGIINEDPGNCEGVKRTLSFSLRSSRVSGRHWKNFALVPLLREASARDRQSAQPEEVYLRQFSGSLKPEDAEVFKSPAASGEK
Procedure: (§1) Human VR1 Cloning: Human spinal cord RNA (commercially available from Clontech, Palo Alto, Calif.) was used. Reverse transcription was conducted on 1.0 μg total RNA using Thermoscript Reverse Transcriptase (commercially available from Invitrogen, Carlsbad, Calif.) and oligo dT primers as detailed in its product description. Reverse transcription reactions were incubated at 55° C. for 1 h, heat-inactivated at 85° C. for 5 min, and RNase H-treated at 37° C. for 20 min.
(§2) Human VR1 cDNA sequence was obtained by comparison of the human genomic sequence, prior to annotation, to the published rat sequence. Intron sequences were removed and flanking exonic sequences were joined to generate the hypothetical human cDNA. Primers flanking the coding region of human VR1 were designed as follows: forward primer, […]; and reverse primer, […]. […]
(§3) Generation of Inducible Cell Lines: Unless noted otherwise, cell culture reagents were purchased from Life Technologies of Rockville, Md. […] On the day of assay, cells were loaded with Fluo-4 (a calcium-sensitive dye that is commercially available from Molecular Probes, Eugene, Oreg.) and CAP-mediated calcium influx was measured using a FLIPR as described below. […]

human VR1 [2] = target: T1, human VR1; assay: pH-based assay (FLIPR calcium influx, inducible HEK293-EcR cells expressing human VR1); assay type: cell-based; settings: agonist buffer giving pH 5.5, HEK293-EcR cells induced with 5 μM PonA, Fluo-4, FLIPR, n=5
Procedure: as §1, §2, §3

- IC50 (human VR1 [1]): 0.382 ± 0.0642 µM
- IC50 (human VR1 [2]): 0.808 ± 0.254 µM
Structure (SMILES): O=C(NCCc1ccccc1)N1CCN(c2ncccc2C(F)(F)F)CC1 [Compound A19]
